Assay results as given in ChEMBL document CHEMBL1201862, “PubChem BioAssay data set” (2004).
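A five-concentration, 48-hour dose response in 96-well plates underlies each endpoint, interpolated linearly between surrounding concentrations. At the GI50, growth is halved.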 Calls of active or inactive are those of the source. No stated cut-off is given here; in the data, active = GI50 up to about 1.1 µM and inactive = higher.

Experiments:
Assay in all cases: NCI-60 cell line screen, 48 h
[1] = tested on: 786-0
[2] = tested on: A498
[3] = tested on: A549
[4] = tested on: ACHN
[5] = tested on: BT-549
[6] = tested on: CAKI-1
[7] = tested on: CCRF-CEM
[8] = tested on: COLO 205
[9] = tested on: DU-145
[10] = tested on: EKVX
[11] = tested on: HCC 2998
[12] = tested on: HCT-116
[13] = tested on: HCT-15
[14] = tested on: HL-60
[15] = tested on: HOP-62
[16] = tested on: HOP-92
[17] = tested on: HT-29
[18] = tested on: Hs-578T
[19] = tested on: IGROV-1
[20] = tested on: K562
[21] = tested on: KM12
[22] = tested on: LOX IMVI
[23] = tested on: M14
[24] = tested on: MCF7
[25] = tested on: MDA-MB-231
[26] = tested on: MDA-MB-435
[27] = tested on: MDA-N
[28] = tested on: MOLT-4
[29] = tested on: Malme-3M
[30] = tested on: NCI-H226
[31] = tested on: NCI-H23
[32] = tested on: NCI-H460
[33] = tested on: NCI-H522
[34] = tested on: NCI/ADR-RES
[35] = tested on: OVCAR-3
[36] = tested on: OVCAR-4
[37] = tested on: OVCAR-5
[38] = tested on: OVCAR-8
[39] = tested on: PC-3
[40] = tested on: RPMI-8226
[41] = tested on: RXF 393
[42] = tested on: SF-268
[43] = tested on: SF-295
[44] = tested on: SF-539
[45] = tested on: SK-MEL-28
[46] = tested on: SK-MEL-2
[47] = tested on: SK-MEL-5
[48] = tested on: SK-OV-3
[49] = tested on: SN12C
[50] = tested on: SNB-19
[51] = tested on: SR
[52] = tested on: SW-620
[53] = tested on: T47D
[54] = tested on: TK-10
[55] = tested on: U-251
[56] = tested on: UACC-257
[57] = tested on: UACC-62
[58] = tested on: UO-31
[59] = tested on: SNB-75

## O=C1c2ccccc2C(=O)N1c1nc(-c2ccc(Cl)cc2)cc(N2N=C(c3ccc(Br)cc3)CC2c2ccccc2)n1 (centres undefined)
[1]
  GI50: 4.93 µM (inactive)
[2]
  GI50: 19.2 µM (inactive)
[3]
  GI50: 3.24 µM (inactive)
[4]
  GI50: 3.9 µM (inactive)
[5]
  GI50: 3.21 µM (inactive)
[6]
  GI50: 1.51 µM (inactive)
[7]
  GI50: 4.13 µM (inactive)
[8]
  GI50: 1.9 µM (inactive)
[9]
  GI50: 3.45 µM (inactive)
[10]
  GI50: 0.792 µM (active)
[11]
  GI50: 0.301 µM (active)
[12]
  GI50: 2.01 µM (inactive)
[13]
  GI50: 1.99 µM
[14]
  GI50: 2.9 µM (inactive)
[15]
  GI50: 2.92 µM (inactive)
[16]
  GI50: 11.4 µM (inactive)
[17]
  GI50: 2.94 µM (inactive)
[18]
  GI50: 3.74 µM (inactive)
[19]
  GI50: 2.84 µM (inactive)
[20]
  GI50: 3.08 µM (inactive)
[21]
  GI50: 9.4 µM (inactive)
[22]
  GI50: 1.29 µM (inactive)
[23]
  GI50: 3.73 µM (inactive)
[24]
  GI50: 1.3 µM (inactive)
[25]
  GI50: 4.07 µM (inactive)
[26]
  GI50: 0.745 µM (active)
[27]
  GI50: 1.03 µM (active)
[28]
  GI50: 2.51 µM (inactive)
[29]
  GI50: > 44.7 µM (inactive)
[30]
  GI50: 5.38 µM (inactive)
[31]
  GI50: 5.37 µM (inactive)
[32]
  GI50: 4.36 µM (inactive)
[33]
  GI50: 2.09 µM (inactive)
[34]
  GI50: 1.97 µM (inactive)
[35]
  GI50: 0.863 µM (active)
[36]
  GI50: 4.23 µM (inactive)
[37]
  GI50: 1.04 µM (active)
[38]
  GI50: 3.35 µM (inactive)
[39]
  GI50: 3.93 µM (inactive)
[40]
  GI50: 2.7 µM (inactive)
[41]
  GI50: 9.16 µM (inactive)
[42]
  GI50: 2.7 µM (inactive)
[43]
  GI50: 0.91 µM (active)
[44]
  GI50: 2.16 µM (inactive)
[45]
  GI50: 7.73 µM (inactive)
[46]
  GI50: 3.26 µM (inactive)
[47]
  GI50: 1.96 µM (inactive)
[48]
  GI50: 6.34 µM (inactive)
[49]
  GI50: 2.9 µM (inactive)
[50]
  GI50: 4.86 µM (inactive)
[51]
  GI50: 0.65 µM (active)
[52]
  GI50: 2.53 µM (inactive)
[53]
  GI50: 1.88 µM (inactive)
[54]
  GI50: 7.98 µM (inactive)
[55]
  GI50: 1.67 µM (inactive)
[56]
  GI50: 6.7 µM (inactive)
[57]
  GI50: 2.72 µM (inactive)
[58]
  GI50: 4.81 µM (inactive)

## Cc1cc(-c2ccc(C(=O)C(c3ccccc3)(c3ccccc3)c3ccccc3)[nH]2)on1
[1]
  GI50: 18.4 µM (inactive)
[2]
  GI50: 37.1 µM (inactive)
[3]
  GI50: 12 µM (inactive)
[5]
  GI50: 18.7 µM (inactive)
[6]
  GI50: 33.1 µM (inactive)
[7]
  GI50: 15.5 µM (inactive)
[8]
  GI50: 15.9 µM (inactive)
[9]
  GI50: 14.2 µM (inactive)
[10]
  GI50: 13.2 µM (inactive)
[11]
  GI50: 11.2 µM (inactive)
[12]
  GI50: 12.5 µM (inactive)
[13]
  GI50: 17.5 µM
[14]
  GI50: 3.56 µM (inactive)
[15]
  GI50: 17.1 µM (inactive)
[16]
  GI50: 16.1 µM (inactive)
[17]
  GI50: 11.4 µM (inactive)
[18]
  GI50: 19.2 µM (inactive)
[19]
  GI50: 16.9 µM (inactive)
[20]
  GI50: 32 µM (inactive)
[21]
  GI50: 15.6 µM (inactive)
[22]
  GI50: 19.5 µM (inactive)
[23]
  GI50: 22.8 µM (inactive)
[24]
  GI50: 18.2 µM (inactive)
[25]
  GI50: 19.7 µM (inactive)
[26]
  GI50: 20.1 µM (inactive)
[27]
  GI50: 16.6 µM (inactive)
[28]
  GI50: 21.8 µM (inactive)
[29]
  GI50: 31.4 µM (inactive)
[30]
  GI50: 16.9 µM (inactive)
[31]
  GI50: 15 µM (inactive)
[32]
  GI50: 7.21 µM (inactive)
[34]
  GI50: 15.8 µM (inactive)
[35]
  GI50: 22.1 µM (inactive)
[36]
  GI50: 32.3 µM (inactive)
[37]
  GI50: 23.8 µM (inactive)
[38]
  GI50: 17.5 µM (inactive)
[39]
  GI50: 15.2 µM (inactive)
[40]
  GI50: 14.4 µM (inactive)
[41]
  GI50: 2.2 µM (inactive)
[42]
  GI50: 18.7 µM (inactive)
[43]
  GI50: 14.2 µM (inactive)
[44]
  GI50: 29.7 µM (inactive)
[45]
  GI50: 17.6 µM (inactive)
[46]
  GI50: 14.6 µM (inactive)
[47]
  GI50: 12.7 µM (inactive)
[48]
  GI50: 32.1 µM (inactive)
[49]
  GI50: 19.1 µM (inactive)
[50]
  GI50: 19 µM (inactive)
[59]
  GI50: 20.4 µM (inactive)
[51]
  GI50: 2.17 µM (inactive)
[52]
  GI50: 19.8 µM (inactive)
[53]
  GI50: 37.8 µM (inactive)
[55]
  GI50: 12.9 µM (inactive)
[56]
  GI50: 32 µM (inactive)
[57]
  GI50: 16.1 µM (inactive)
[58]
  GI50: 15.2 µM (inactive)
